Assay: Residue neutralization: recovery and breakdown of pesticide and fungicide active ingredients after exposure to anolyte dilutions
Assay type: physicochemical
Settings: 5 minutes, ambient temperature
Experimental: The breakdown of pesticide and fungicide residues by an oxidant ECA anolyte solution was evaluated as follows.
The oxidant anolyte solution was diluted using a 10 fold dilution series. As a control for this test, the potential for non-ECA based hydrolysis or chemical breakdown was assessed using two untreated control solutions, one being the tap water used as the diluent in the anolyte dilution series and the other being the non-activated brine solution that was used as the electrolysis feed solution prior to electro-activation.
The experiment was performed to contrast the difference in degree of recovery of a variety of pesticide and fungicide active ingredients (AI's) after the tap water and the various diluted anolyte solutions were ‘spiked’ with the same AI's at fixed inclusion rates. In each case, a one ppm cocktail of the active ingredients was added to a 100 ml aliquot of the test or control solution sample. The test samples were agitated with a mechanical stirrer for 5 minutes at ambient temperature and then extracted with an organic solvent and analyzed by either gas or liquid chromatography.

[1] = 0.25% Brine (nonactivated control)

Row | SMILES | ng found [1] | % breakdown (1% Anolyte solution) [%] | ng found (1% Anolyte solution) [ng] | % breakdown (10% anolyte solution) [%] | ng found (10% anolyte solution) [ng] | % breakdown (100% anolyte solution) [%] | ng found (100% anolyte solution) [ng]
1 | CO/N=C(/C(=O)OC)c1ccccc1COc1ccccc1C [Kresoxim-methyl] | 1.300 ng | 0.0 | 1.328 | 0.0 | 1.344 | 100 | 0.035
2 | Cc1cc(C2CC2)nc(Nc2ccccc2)n1 [Cyprodinil] | 1.297 ng | 0.0 | 1.356 | 96.3 | 0.068 | 100 | 0.026
3 | CCOP(=S)(OCC)Oc1nc(Cl)c(Cl)cc1Cl [Chlorpyrifos] | 1.014 ng | 0.0 | 1.039 | 100 | 0.05 | 100 | 0.049
4 | CCCCc1c(C)nc(NCC)nc1OS(=O)(=O)N(C)C [Bupirimate] | 1.250 ng | 0.0 | 1.233 | 52.0 | 0.730 | 100 | 0.074
5 | COP(=S)(OC)SCn1nnc2ccccc2c1=O [Azinphos-methyl] | 2.341 ng | 0.0 | 2.393 | 100 | 0.000 | 100 | 0.000
6 | CCCCNC(=O)n1c(NC(=O)OC)nc2ccccc21 [Benomyl] | 0.970 ng | 8.0 | 0.890 | 45 | 0.520 | 100 | 0.000
7 | CNC(=O)O/N=C/C(C)(C)SC [Aldicarb] | 0.920 ng | 49.5 | 0.425 | 100 | 0.000 | 100 | 0.000
8 | CNC(=O)ON=C(C)SC [Methomyl] | 1.006 ng | 36.6 | 0.634 | 100 | 0.000 | 100 | 0.000
9 | CCOC(=O)CC(SP(=S)(OC)OC)C(=O)OCC (stereo not shown) [Malathion] | 1,327 ng | 0.0 | 1.368 | 100 | 0.066 | 100 | 0.067
10 | CNC(=O)O/N=C/C(C)(C)[S+](C)[O-] (stereo not shown) [Aldicarb sulfoxide] | 0.672 ng | 15.8 | 0.514 | 100 | 0.000 | 100 | 0.000
